The values below come from publication PMC9501280, “Anti-Inflammatory Activity of Soluble Epoxide Hydrolase Inhibitors Based on Selenoureas Bearing an Adamantane Moiety” (International Journal of Molecular Sciences, 2022).

Values after ≈ are worked out from the molar mass of the structure shown. “Also recorded” adds a separate entry of the source. Like-named read-outs stand apart in the source and are kept apart here.

Data set [1] is described as follows: Ferrous ions (Fe2+) chelating activity (FIC). The note with it: compound 5 mM; EDTA taken as 100%. The text has this:
One of the most important antioxidant properties of compounds is the ability to chelate transition metal ions, including iron, which participate in the Fenton reaction, forming an active HO^• and H2O2 and contributing to the development of radical processes, respectively, leading to oxidative damage to cells. In this regard, potential antioxidants can act not only as scavengers of active radicals but also have chelating properties. Therefore, the Ferrous Ions Chelating Activity (FIC) of compounds 4a–g and 5a were evaluated in this work by their ability to bind iron(II), which is expressed in a decreased amount of the colored ferrozine complex.
The chelation of ferrous ions by compounds was estimated by the method of Dinis et al. Briefly, 10 μL of 2 mM FeCl2 was added to 20 μL of the investigated compound (5 mM) and 150 μL of EtOH. The reaction was initiated by the addition of 0.04 mL of 5 mM ferrozine solution. The mixture was left to stand at 35 °C for 10 min. The absorbance of the solution was thereafter measured at 562 nm. The percentage inhibition of ferrozine–Fe^2+ complex formation was calculated as […], where A0 is the absorbance of the control, and As is the absorbance of the compound/standard. Na2EDTA was used as the positive control.

Data set [2] can be described thus: Cupric reducing antioxidant capacity (CUPRAC). The note with it: Trolox equivalents (Trolox = 1); compound 0.5 mM, 30 min. The source says:
(§1) To confirm the SET mechanism, the reducing activity of the compounds was studied using tests CUPRAC (Cupric-Reducing Antioxidant Capacity) and FRAP (Ferric ion-Reducing Antioxidant Power). Unlike the DPPH and ABTS tests, these methods are based only on the ability of substances to act as electron donors. It should be noted that the CUPRAC test has several advantages: the manifestation of activity at a pH close to the physiological value and a favorable redox potential; the method is applicable to both lipophilic and hydrophilic antioxidants. The antioxidant potential of the studied derivatives 4a–g and 5a is estimated in equivalents of the water-soluble analog of vitamin E—Trolox (TEAC—Trolox Equivalent Antioxidant Capacity), the activity of which is taken as the unit ([…] = 1, […] = 1).
Neocuproine (2,9-dimethyl-1,10-phenanthroline) and Trolox were used with no further purification. The method proposed by Apak et al. was used with slight modifications. For these measurements, 0.05 mL of CuCl2 solution (0.01 M), 0.05 mL of MeOH neocuproine solution (7.5 mM) and 0.05 mL of ammonium acetate buffer solution (1 M) were added to a test tube, followed by mixing with the 0.05 mL tested compounds (0.5 mM). The mixtures were kept at room temperature for 30 min. The absorbance was measured at 450 nm against a reagent blank. The results were presented in Trolox equivalents (Trolox equivalent antioxidant capacity, TEAC) obtained using absorbance data, and the linear calibration curve was plotted as the absorbance vs. Trolox concentration.

Data set [3] in a line: Ferric-reducing antioxidant power (FRAP). The note with it: Trolox equivalents (Trolox = 1).
Description: as §1
The sample solution (0.1 mL) was mixed with 0.1 mL phosphate buffer (0.2 M, pH 6.6) and 0.1 mL potassium ferricyanide (1%). For each test compound, different concentrations of EtOH were used (5, 10, 25, 50, 100, 200 and 250 μM). The resulting mixture was incubated at 50 °C for 20 min. After the incubation period, 0.1 mL trichloroacetic acid (10%), 0.5 mL deionized water and 0.1 mL ferric chloride (0.1%) were added to the mixture. The sample absorbance was read at 700 nm with a 96-cell microplate spectrophotometer. The reduction of Fe (III) to Fe (II) could be expressed as % inhibition or the equivalent of a standard compound (e.g., Trolox).

A short description of data set [4]: Solubility in sodium phosphate buffer. The format is physicochemical. The note with it: aqueous buffer, kinetic from dmso stock; sodium phosphate buffer (pH 7.4, 0.1 M) containing 1% DMSO. As to the method:
To our knowledge, no systematic studies of selenoureas as sEH inhibitors have been performed previously. The potency of the compounds was determined against the human recombinant sEH and their solubility assessed in phosphate-buffered saline (Table 1).

A further data set deals with T1, human recombinant sEH (Homo sapiens, UniProt P34913).
T1 sequence (P34913 1-555): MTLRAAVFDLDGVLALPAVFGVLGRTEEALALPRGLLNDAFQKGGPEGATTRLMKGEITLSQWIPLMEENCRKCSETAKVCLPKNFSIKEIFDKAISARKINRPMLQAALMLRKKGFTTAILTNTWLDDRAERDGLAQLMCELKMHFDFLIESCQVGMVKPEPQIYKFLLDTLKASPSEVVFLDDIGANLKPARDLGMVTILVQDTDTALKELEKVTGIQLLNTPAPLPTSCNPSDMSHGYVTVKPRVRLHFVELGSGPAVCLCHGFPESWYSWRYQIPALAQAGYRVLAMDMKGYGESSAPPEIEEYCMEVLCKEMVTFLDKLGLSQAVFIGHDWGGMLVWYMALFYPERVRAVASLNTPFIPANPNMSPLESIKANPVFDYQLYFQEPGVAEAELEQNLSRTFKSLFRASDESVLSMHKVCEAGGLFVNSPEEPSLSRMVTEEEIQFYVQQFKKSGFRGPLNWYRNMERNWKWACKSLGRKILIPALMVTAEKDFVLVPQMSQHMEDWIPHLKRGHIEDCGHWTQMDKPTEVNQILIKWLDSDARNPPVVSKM
Kind of data set: Human sEH inhibition, kinetic fluorescent assay. Type of data set: biochemical.

The nature of data set [5]: ABTS radical cation scavenging. As to the method:
Thus, at the further steps, the complex investigation of the target compounds’ ability to interact with protons, electrons, and radicals was conducted.

The mark [6] stands for this setting: kinetic fluorescent assay, means of three separate experiments, read-out: Human sEH IC50.

Consider `[Se]=C(Nc1ccccc1)NC12CC3CC(CC(C3)C1)C2` [4a, 1-(Adamantan-1-yl)-3-phenylselenourea], for which, in data set [1], the “% Inhibition FIC” value is 13.6 ± 0.04%. The TEACCUPRAC in data set [2] was 1.07 ± 0.11. Besides, the TEACFRAP in data set [3] came to 0.93 ± 0.06. In data set [4], this molecule displayed a solubility of 55 ± 10 µM (≈ 18.3 µg/mL). Besides, the IC50 at human recombinant sEH (setting [6]) came to 436 nM.

Regarding `[Se]=C(NCC12CC3CC(CC(C3)C1)C2)Nc1ccccc1` [4b, 1-[(Adamantan-1-yl)methyl]-3-phenylselenourea], the “% Inhibition FIC” value in data set [1] is 14.15 ± 2.27%. In data set [2], the TEACCUPRAC came to 3.04 ± 0.11. Moreover, the TEACFRAP in data set [3] worked out at 1.14 ± 0.03. In data set [4], this molecule gave a solubility of 110 ± 20 µM (≈ 38.2 µg/mL). Besides, the “% Inhibition ABTS+•” value in data set [5] turned out to be 53.01 ± 1.62%. For the same molecule, the “increase in the inhibitory activity” value at human recombinant sEH (4b versus 4a, one methylene group between adamantyl and selenourea) was 3.3 fold. For the same molecule, the IC50 on human recombinant sEH (setting [6]) amounted to 131 nM.

In the case of `CC(NC(=[Se])Nc1ccccc1)C12CC3CC(CC(C3)C1)C2` (centres unmarked) [4c, 1-[1-(Adamantan-1-yl)ethyl]-3-phenylselenourea], in data set [1], the “% Inhibition FIC” value came to 21.90 ± 1.88%. Besides, the TEACCUPRAC in data set [2] was 3.39 ± 0.11. Moreover, the TEACFRAP in data set [3] is reported as 1.81 ± 0.08. In data set [4], this molecule yielded a solubility of 50 ± 5 µM (≈ 18.1 µg/mL). Besides, in data set [5], the “% Inhibition ABTS+•” value was 77.44 ± 1.78%. The IC50 at human recombinant sEH (human sEH, read-out: IC50 (sEH)) came to 1200 nM; at human recombinant sEH (setting [6]), 1210 nM.

Take `[Se]=C(NCCC12CC3CC(CC(C3)C1)C2)Nc1ccccc1` [4d, 1-[2-(Adamantan-1-yl)ethyl]-3-phenylselenourea]: in data set [1], the “% Inhibition FIC” value was “not established; also recorded: non active”. Besides, the TEACCUPRAC in data set [2] came out at 3.29 ± 0.12. Besides, in data set [3], the TEACFRAP was 1.32 ± 0.01. This molecule also returned a solubility in data set [4] of 70 ± 10 µM (≈ 25.3 µg/mL). For the same molecule, the “% Inhibition ABTS+•” value in data set [5] came to 64.55 ± 2.30%. Also, on human recombinant sEH (setting [6]), the IC50 was 49.1 nM.

Regarding `[Se]=C(Nc1ccccc1)Nc1ccc(C23CC4CC(CC(C4)C2)C3)cc1` [4e, 1-[4-(Adamantan-1-yl)phenyl]-3-phenylselenourea], the “% Inhibition FIC” value in data set [1] is given as “not established; also recorded: non active”. The TEACCUPRAC in data set [2] came out at 0.99 ± 0.05. The TEACFRAP in data set [3] is reported as 1.13 ± 0.14. This molecule also registered a solubility in data set [4] of 30 ± 10 µM (≈ 12.3 µg/mL). Besides, on human recombinant sEH (setting [6]), the IC50 worked out at 55.4 nM.

As to `CC12CC3CC(C)(C1)CC(NC(=[Se])Nc1ccccc1)(C3)C2` [4f, 1-(3,5-Dimethyladamantan-1-yl)-3-phenylselenourea], the “% Inhibition FIC” value in data set [1] stood at 26.20 ± 3.20%. Besides, the TEACCUPRAC in data set [2] was determined as 0.22± 0.01. The TEACFRAP in data set [3] worked out at 0.57 ± 0.04. In addition, the solubility in data set [4] is 100 ± 10 µM (≈ 36.1 µg/mL). For the same molecule, the “% Inhibition ABTS+•” value in data set [5] is “do not exhibit antiradical properties; also recorded: nonactive”. For the same molecule, the IC50 on human recombinant sEH (setting [6]) worked out at 256 nM.

As to `[Se]=C(Nc1ccccc1)NC1C2CC3CC(C2)CC1C3` (centres unmarked) [4g, 1-(Adamantan-2-yl)-3-phenylselenourea], the “% Inhibition FIC” value in data set [1] worked out at 19.74 ± 1.57%. In addition, the TEACCUPRAC in data set [2] is 2.48 ± 0.16. Also, in data set [3], the TEACFRAP was 1.39 ± 0.03. In data set [4], this molecule displayed a solubility of 80 ± 20 µM (≈ 26.7 µg/mL). For the same molecule, the “% Inhibition ABTS+•” value in data set [5] was found to be 47.21 ± 1.20%. In addition, the IC50 at human recombinant sEH (setting [6]) was 104 nM.

`[Se]=C(NCc1ccccc1)NC12CC3CC(CC(C3)C1)C2` [5a, 1-(Adamantan-1-yl)-3-benzylselenourea]: the “% Inhibition FIC” value in data set [1] is recorded as “not established; also recorded: non active”. Further, the TEACCUPRAC in data set [2] came to 1.62 ± 0.4. In addition, the TEACFRAP in data set [3] was 1.19 ± 0.04. The molecule also displayed a solubility in data set [4] of 125 ± 20 µM (≈ 43.4 µg/mL). In addition, the IC50 on human recombinant sEH (setting [6]) is 211 nM.

What is called solubility is the concentration that dissolves in the medium under given conditions. Broadly, the IC50 is the point on the concentration scale where inhibition reaches its midpoint.
